According to patent US6706663B2, “Herbicidal 3-heterocyclic substituted benzisothiazole and benzisoxazole compounds” (Wyeth, priority 2000, dated 2004):

Key:
ORYSAT (Rice, Tebonnet) [1] = test: Postemergence herbicidal evaluation; format: in vivo, Oryza sativa, (L.) Tebonnet
Method in brief: (§1)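 Seedlings grown about two weeks in flats, sprayed, then kept under standard greenhouse care. Rated visually 4–5 weeks after treatment on a 0–9 scale (stand, vigour, malformation, size, chlorosis, overall appearance) relative to untreated control; repeat tests averaged.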

[2] = system: AMBEL (Ambrosia artemisifolia); test: Postemergence herbicidal evaluation; format: in vivo, L.
Method in brief: as §1

[3] = system: CASOB (Cassia obtusifolia); test: Postemergence herbicidal evaluation; format: in vivo, L.
Method in brief: as §1

[4] = system: CHEAL (Chenopodium album); test: Postemergence herbicidal evaluation; format: in vivo, L.
Method in brief: as §1

[5] = system: AMBEL (Ambrosia artemisifolia); test: Preemergence herbicidal evaluation; format: in vivo, L.; conditions: preemergence, rated 4-5 weeks after treatment
Method in brief: (§2)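 Seeds planted in potting soil cups and sprayed preemergence with aqueous acetone compound solution. Greenhouse-grown; rated 4–5 weeks after treatment on a 0-9 visual scale (stand, vigor, malformation, size, chlorosis, appearance) versus control.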

[6] = system: CASOB (Cassia obtusifolia); test: Preemergence herbicidal evaluation; format: in vivo, L.; conditions: preemergence, rated 4-5 weeks after treatment
Method in brief: as §2

[7] = system: CHEAL (Chenopodium album); test: Preemergence herbicidal evaluation; format: in vivo, L.; conditions: preemergence, rated 4-5 weeks after treatment
Method in brief: as §2

[8] = system: GLXMAW (Soybean, Williams); test: Postemergence herbicidal evaluation; format: in vivo, Glycine max, (L.) Merr. cv Williams
Method in brief: as §1

[9] = system: IPOHE (Ipomoea hederacea); test: Preemergence herbicidal evaluation; format: in vivo, (L.) Jacq.; conditions: preemergence, rated 4-5 weeks after treatment
ORYSAT (Rice, Tebonnet) [10] = test: Flooded paddy, post-transplant rice tolerance; format: in vivo, Oryza sativa, (L.) Tebonnet; conditions: flooded paddy, post-transplant rice, rated 3-4 weeks after treatment, 0-9 rating scale
Method in brief: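 Two ten-day-old Tebonnet rice seedlings transplanted into silt loam, then flooded with water held at 1.5–3 cm above soil; herbicide applied post-transplant. Plants kept in greenhouse and rated visually 0–9 versus untreated control for stand, vigor, malformation, size and chlorosis.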

[11] = system: SAGPY (Sagittaria pygmaea); test: Flooded paddy, preemergence weed control; format: in vivo, L.; conditions: rated 3-4 weeks after treatment, 0-9 rating scale
Method in brief: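 Visual 0-9 rating versus control, scoring stand, vigor, malformation, size, chlorosis and overall appearance. Silt loam soil, propagules in top 0.5 cm; flood depth 1.5–3 cm held for the whole test; greenhouse.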

ORYSAT (Rice, Tebonnet) [12] = test: Preemergence herbicidal evaluation; format: in vivo, Oryza sativa, (L.) Tebonnet; conditions: preemergence, rated 4-5 weeks after treatment
[13] = system: TRZAWR (Wheat, Winter, cv Riband); test: Preemergence herbicidal evaluation; format: in vivo, Triticum aestivum; conditions: preemergence, rated 4-5 weeks after treatment
Method in brief: as §2

GALAP (Galium aparine) [14] = test: Preemergence herbicidal evaluation; format: in vivo; conditions: preemergence, rated 4-5 weeks after treatment
Method in brief: as §2

GALAP (Galium aparine) [15] = test: Postemergence herbicidal evaluation; format: in vivo
Method in brief: as §1

ZEAMX (Corn, Field) = test: Postemergence herbicidal evaluation; format: in vivo, Zea mays, L.
Method in brief: as §1

[16] = system: ABUTH (Abutilon theophrasti); test: Preemergence herbicidal evaluation; format: in vivo, Medic.; conditions: preemergence, rated 4-5 weeks after treatment
[17] = system: ECHCG (Echinochloa crus-galli); test: Postemergence herbicidal evaluation; format: in vivo, (L.) Beau
Method in brief: as §1

[18] = system: ABUTH (Abutilon theophrasti); test: Postemergence herbicidal evaluation; format: in vivo, Medic.
Method in brief: as §1

[19] = system: CYPSE (Cyperus serotinus); test: Flooded paddy, preemergence weed control; format: in vivo, Rottb.; conditions: rated 3-4 weeks after treatment, 0-9 rating scale
Method in brief: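 Seeds or propagules were planted 0.5 cm deep in silt loam and flooded to 1.5–3 cm. Compounds in 50/50 v/v aqueous/acetone were pipetted into the flood water at about 0.0080 to 0.1250 kg/ha. After 3–4 weeks in the greenhouse, effect was rated visually on a 0–9 scale versus untreated control.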

Cc1cc(C)c(-c2nsc3ccc(-n4c(=O)cc(C(F)(F)F)n(C)c4=O)cc23)s1 [Compound 27, 3-[3-(3,5-dimethyl-2-thienyl)-1,2-benzisothiazol-5-yl]-1-methyl-6-(trifluoromethyl)uracil]
0.0: herbicidal rating, SAGPY ([11]; rate 0.0080 kg/ha) | herbicidal rating, CYPSE ([19]; rate 0.0080 kg/ha)
1.0: CASOB preemergence herbicidal rating ([6]; Rate 0.0620 kg/ha) | herbicidal rating, ORYSAT (rice tolerance) (ORYSAT (Rice, Tebonnet) [10]; rate 0.0080 kg/ha) | ORYSAT preemergence herbicidal rating (ORYSAT (Rice, Tebonnet) [12]; Rate 0.0620 kg/ha) | ORYSAT preemergence herbicidal rating (ORYSAT (Rice, Tebonnet) [12]; Rate 0.2500 kg/ha)
2.0: herbicidal rating, ORYSAT (rice tolerance) (ORYSAT (Rice, Tebonnet) [10]; rate 0.0320 kg/ha) | ORYSAT preemergence herbicidal rating (ORYSAT (Rice, Tebonnet) [12]; Rate 0.1250 kg/ha) | TRZAWR preemergence herbicidal rating ([13]; Rate 0.0620 kg/ha) | TRZAWR preemergence herbicidal rating ([13]; Rate 0.1250 kg/ha) | TRZAWR preemergence herbicidal rating ([13]; Rate 0.2500 kg/ha) | Postemergence herbicidal rating, GALAP (GALAP (Galium aparine) [15]; rate 0.0320 kg/ha)
3.0: Postemergence herbicidal rating, CASOB ([3]; rate 0.0320 kg/ha) | Postemergence herbicidal rating, CASOB ([3]; rate 0.0620 kg/ha) | IPOHE preemergence herbicidal rating ([9]; Rate 0.2500 kg/ha)
6.5: Postemergence herbicidal rating, GLXMAW ([8]; rate 0.0320 kg/ha)
4.5: Postemergence herbicidal rating, ORYSAT (ORYSAT (Rice, Tebonnet) [1]; rate 0.0320 kg/ha) | Postemergence herbicidal rating, ORYSAT (ORYSAT (Rice, Tebonnet) [1]; rate 0.0620 kg/ha) | herbicidal rating, CYPSE ([19]; rate 0.0320 kg/ha)
4.0: CASOB preemergence herbicidal rating ([6]; Rate 0.2500 kg/ha) | IPOHE preemergence herbicidal rating ([9]; Rate 0.1250 kg/ha) | Postemergence herbicidal rating, GALAP (GALAP (Galium aparine) [15]; rate 0.0620 kg/ha) | Postemergence herbicidal rating, ECHCG ([17]; rate 0.0320 kg/ha)
7.0: GALAP preemergence herbicidal rating (GALAP (Galium aparine) [14]; Rate 0.1250 kg/ha)
1.7: herbicidal rating, SAGPY ([11]; rate 0.0320 kg/ha)
3.7: herbicidal rating, ORYSAT (rice tolerance) (ORYSAT (Rice, Tebonnet) [10]; rate 0.1250 kg/ha)
8.3: herbicidal rating, SAGPY ([11]; rate 0.1250 kg/ha)
6.0: Postemergence herbicidal rating, GLXMAW ([8]; rate 0.0620 kg/ha) | ABUTH preemergence herbicidal rating ([16]; Rate 0.1250 kg/ha) | herbicidal rating, CYPSE ([19]; rate 0.1250 kg/ha)
5.0: AMBEL preemergence herbicidal rating ([5]; Rate 0.0620 kg/ha) | AMBEL preemergence herbicidal rating ([5]; Rate 0.1250 kg/ha) | CASOB preemergence herbicidal rating ([6]; Rate 0.1250 kg/ha) | Postemergence herbicidal rating, ZEAMX (ZEAMX (Corn, Field); rate 0.0320 kg/ha) | Postemergence herbicidal rating, ZEAMX (ZEAMX (Corn, Field); rate 0.0620 kg/ha) | ABUTH preemergence herbicidal rating ([16]; Rate 0.0620 kg/ha) | Postemergence herbicidal rating, ECHCG ([17]; rate 0.0620 kg/ha)
9.0: Postemergence herbicidal rating, AMBEL ([2]; rate 0.0320 kg/ha) | Postemergence herbicidal rating, AMBEL ([2]; rate 0.0620 kg/ha) | Postemergence herbicidal rating, CHEAL ([4]; rate 0.0320 kg/ha) | Postemergence herbicidal rating, CHEAL ([4]; rate 0.0620 kg/ha) | AMBEL preemergence herbicidal rating ([5]; Rate 0.2500 kg/ha) | CHEAL preemergence herbicidal rating ([7]; Rate 0.0620 kg/ha) | CHEAL preemergence herbicidal rating ([7]; Rate 0.1250 kg/ha) | CHEAL preemergence herbicidal rating ([7]; Rate 0.2500 kg/ha) | GALAP preemergence herbicidal rating (GALAP (Galium aparine) [14]; Rate 0.0620 kg/ha) | ABUTH preemergence herbicidal rating ([16]; Rate 0.2500 kg/ha) | Postemergence herbicidal rating, ABUTH ([18]; rate 0.0320 kg/ha) | Postemergence herbicidal rating, ABUTH ([18]; rate 0.0620 kg/ha)
8.0: GALAP preemergence herbicidal rating (GALAP (Galium aparine) [14]; Rate 0.2500 kg/ha)
